Laboratory results taken from patent publication US12678509B2, “Inhibitor of apoptosis (IAP) protein antagonists” (Sanford Burnham Prebys Medical Discovery Institute, priority 2019, dated 2026).

What was measured:
[1] = test system: latently infected cell line Jurkat 2D10; assay: HIV Jurkat 2D10 cells GFP+ assay (reversal of HIV latency); format: cell-based; details: Homo sapiens, Jurkat, 48 h, read-out: Jurkat 2D10 GFP+ EC50
Description: Several compounds (Table 5) were tested for their efficacy in the reversal of HIV latency in the latently infected cell line Jurkat 2D10. Jurkat 2D10 cells were treated with different doses of the compounds, or one of the following compounds: BV-6, SM-164, Birinapant, LCL-161, GDC-0152, AT-406 for 48 hours. Reversal of HW latency was evaluated by analyzing GFP expression using flow cytometry. Induction of GFP expression was compared to baseline GFP levels detected in the absence of treatment.

AML-SH-065 = assay: Cell viability in patient derived AML samples (CellTiterGlo, 72 h); format: cell-based, human; details: for IC50: Homo sapiens, 72 h, read-out: AML-SH-065 IC50; for AML-SH-065 Efficacy: patient derived AML sample AML-SH-065, 72 h, cell viability at max. concentration
Description: (§1) Patient AML samples were gathered (under IRB 13-6180) from Scripps MD Anderson, La Jolla, CA Fresh blood samples were subjected to gradient density centrifugation with Ficoll-Paque™ PLUS (17-1440-02, GE Healthcare) and peripheral blood mononuclear cells purified as per manufacturer's protocol.
(§2) 75 nL of 1000× serially diluted IAP inhibitors were spotted in triplicate onto 384-well tissue culture treated plates (Greiner) using a Labcyte Echo acoustic dispensing device. Patient-derived AML cells were maintained in mTeSR1^+1× supplements (Stemcell Technologies) and penicillin/streptomycin/L-glutamine (Omega Scientific Inc.) and Fungizone (HyClone). 25 μL of cell dilution were plated into 384-well plate containing the drugs and incubated for 72 h. Cell viability was assessed by adding 25 μL CellTiterGlo (Promega Corp.) on a Synergy 2 plate reader with Gen5 software (Biotek). % viability was calculated by normalizing luminescence to vehicle only controls (DMSO) in Microsoft Excel and plotted using GraphPad Prism 8. The IC50 values were calculated using log(inhibitor) vs. response—Variable slope (four parameters) equation. (FIG. 6)

AML-SH-074 = assay: as above; format: cell-based, human; details: for IC50: Homo sapiens, 72 h, read-out: AML-SH-074 IC50; for AML-SH-074 Efficacy: patient derived AML sample AML-SH-074, 72 h, cell viability at max. concentration
Description: as §1, §2

AML-SH-075 = assay: as above; format: cell-based, human; details: for IC50: Homo sapiens, 72 h, read-out: AML-SH-075 IC50; for AML-SH-075 Efficacy: patient derived AML sample AML-SH-075, 72 h, cell viability at max. concentration
Description: as §1, §2

BIR3 domain of cIAP1 = BIR3 domain of cIAP1 (Homo sapiens, UniProt Q13490); assay: Fluorescence polarization assay; format: binding; details: SMAC-FITC probe, Ki calculated from IC50
Sequence of BIR3 domain of cIAP1 (Q13490 253-363 limits assumed): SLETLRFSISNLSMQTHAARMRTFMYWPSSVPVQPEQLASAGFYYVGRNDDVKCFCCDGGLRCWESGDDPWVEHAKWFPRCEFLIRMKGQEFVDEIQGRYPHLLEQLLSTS
Description: (§3) Binding of compounds to ML-IAP and BIR3 domain of cIAP1, cIAP2 and XIAP was determined by fluorescence polarization. Assay buffer was 100 mM KH2PO4 at pH 7.5, 50 μM ZnSO4, 1 mM TCEP (Tris(2-carboxyethyl)phosphine hydrochloride) and 50 nM SMAC-FITC probe (AbuRPF-K(5-Fam)-NH2) as described by Z. Nikolovska-Coleska et al.^9. cIAP1 and XIAP were present at 800 nM while cIAP2 and MLIAP were present at 1.5 μM. Compounds in 3-fold dilutions were added to the plates ranging from 30 μM to 1.5 nM. Assays were run in 384-well black plates read (Greiner Bio-One #784076) in an Analyst in fluorescence polarization mode with excitation at 485 nm and emission at 535 nm. Data was fit to a nonlinear regression curve in GraphPad Prism 8 to determine the IC50 values of the compounds. Ki's were then calculated from the IC50 values using equation: Ki=[I]50/([L]50/Kd+[P]0/Kd+1) formulated by Z. Nikolovska-Coleska et al.

BIR3 domain of XIAP = BIR3 domain of XIAP (Homo sapiens, UniProt P98170); assay: Fluorescence polarization assay; format: binding; details: SMAC-FITC probe, Ki calculated from IC50
Sequence of BIR3 domain of XIAP (P98170 241-356 limits assumed): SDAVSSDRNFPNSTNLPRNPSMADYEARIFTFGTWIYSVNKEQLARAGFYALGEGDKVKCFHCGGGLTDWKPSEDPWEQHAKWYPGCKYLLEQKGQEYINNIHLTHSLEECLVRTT
Description: as §3

ML-IAP = target: T1, ML-IAP (Homo sapiens, UniProt Q96CA5); assay: Fluorescence polarization assay; format: binding; details: SMAC-FITC probe, Ki calculated from IC50
T1 sequence (Q96CA5 1-298): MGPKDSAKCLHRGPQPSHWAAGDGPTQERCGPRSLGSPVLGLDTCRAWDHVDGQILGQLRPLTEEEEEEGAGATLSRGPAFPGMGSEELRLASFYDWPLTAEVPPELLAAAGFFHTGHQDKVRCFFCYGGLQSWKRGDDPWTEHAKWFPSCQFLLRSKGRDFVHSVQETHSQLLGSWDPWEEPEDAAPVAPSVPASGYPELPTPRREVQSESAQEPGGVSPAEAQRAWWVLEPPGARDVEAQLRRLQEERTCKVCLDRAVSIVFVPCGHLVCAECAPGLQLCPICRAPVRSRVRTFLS
Description: as §3

BIR3 domain of cIAP2 = BIR3 domain of cIAP2 (Homo sapiens, UniProt Q13489); assay: Fluorescence polarization assay; format: binding; details: SMAC-FITC probe, Ki calculated from IC50
Sequence of BIR3 domain of cIAP2 (Q13489 238-349 limits assumed): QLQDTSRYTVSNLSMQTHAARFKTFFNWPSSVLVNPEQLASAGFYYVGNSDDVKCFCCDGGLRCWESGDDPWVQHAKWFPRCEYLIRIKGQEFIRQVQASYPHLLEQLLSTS
Description: as §3

NB-4 = assay: Cell viability (CellTiter-Glo); format: cell-based, Human; details: Homo sapiens, NB-4, 72 h, read-out: NB-4 Viability 72 h IC50
Description: The compound 18a was tested in 16 different cell lines. For 6-day compound treatment 1700 cells per well were plated in a 384-well plate (Corning #781098) and incubated overnight at 37° C./5% CO2. […] Afterwards, 20 μL CellTiter-Glo reagent (Promega, #G7570) was added to each well outside of the incubator and the plates were read for luminescence on a Spark® multimode microplate reader (Tecan). Data was fit in GraphPad Prism 8 to a nonlinear regression curve to determine the IC50 of the compounds. […]

SKOV-3 = assay: Cell viability (CellTiter-Glo), 48 hrs; format: cell-based; details: Homo sapiens, SK-OV-3, 48 h, read-out: SKOV-3 Viability 48 h IC50
Description: One thousand seven hundred cells per well were plated in a 384 well plate and incubated overnight at 37° C./5% CO2. The following day, compounds in 10-fold dilutions were added to the plates and the plates returned to the incubator for 48 hrs. 48 hrs later, plates were removed to the bench and 20 μL CellTiter-Glo reagent was added to each well and the plates were read for luminescence on a Spark® multimode microplate reader (Tecan). Data were fit using PRISM to a nonlinear regression curve to determine the IC50 of the compounds.

[2] = Pharmacokinetic study in mice, snapshot PK; format: in vivo; details: female, C57BL/6J, mouse, plasma, ip, one hour after i.p. injection of 10 mg/kg
Description: All animal procedures were approved by the Sanford Burnham Prebys Medical Discovery Institute Institutional Animal Care and Use Committee and were performed according to the NIH guidelines for the Care and Use of Laboratory Animals. Adult female C57BL/6J were purchased from JAX laboratories and housed with free access to food and water on a 12 h light/dark cycle. Compounds were formulated in 5% DMSO, 10% Tween-80, and 85% dH2O and injected intraperitoneally (i.p.) into mice at doses of 10 mg/kg. For snapshot PK analysis, blood samples were collected retro-orbitally one hour after injection and for the time course PK study, blood samples were collected at 15 min, 30 min, 1 h, 2 h, 4 h, 6 h, 24 h time points. For the blood samples plasma was separated by centrifugation. Plasma samples were extracted with acetonitrile:water 4:1 with 0.1% formic acid containing indometacin as an internal standard. Samples were centrifuged and supernatants were diluted with acetonitrile:water and analyzed via LC-MS/MS on a Shimadzu Nexera X2 HPLC coupled to an AB Sciex 6500 QTRAP.
Plasma exposure of selected compounds at 1 h compared.
Plasma levels of parent compound determined one hour after i.p. injection of 10 mg/kg

MOLM 13 = assay: Cell viability (CellTiter-Glo), 6-day compound treatment; format: cell-based, Human; details: Homo sapiens, MOLM-13, 144 h, read-out: MOLM 13 Viability 6 d IC50
Description: The compound 18a was tested in 16 different cell lines. For 6-day compound treatment 1700 cells per well were plated in a 384-well plate (Corning #781098) and incubated overnight at 37° C./5% CO2. The following day, compounds in 10-fold dilutions were added to the plates and the plates were incubated for 6 days. Afterwards, 20 μL CellTiter-Glo reagent (Promega, #G7570) was added to each well outside of the incubator and the plates were read for luminescence on a Spark® multimode microplate reader (Tecan). Data was fit in GraphPad Prism 8 to a nonlinear regression curve to determine the IC50 of the compounds. […]

Row | Structure (SMILES) | EC50 [1] [µM] | IC50 (AML-SH-065) [µM] | AML-SH-065 Efficacy (AML-SH-065) | IC50 (AML-SH-074) [µM] | AML-SH-074 Efficacy (AML-SH-074) | IC50 (AML-SH-075) [µM] | AML-SH-075 Efficacy (AML-SH-075) | Ki (BIR3 domain of cIAP1) [µM] | Ki (BIR3 domain of XIAP) [µM] | Ki (ML-IAP) [µM] | Ki (BIR3 domain of cIAP2) [µM] | IC50 (NB-4) [µM] | IC50 (SKOV-3) [µM] | concentration at 1 h [2] [µM] | IC50 (MOLM 13) [µM]
1 | CN[C@@H](C)C(=O)N[C@H]1CCS[C@H]2CC(C)(C)[C@@H](C(=O)N[C@H]3c4ccccc4C[C@H]3OCC#Cc3ccc(C#CCO[C@@H]4Cc5ccccc5[C@@H]4NC(=O)[C@H]4N5C(=O)[C@@H](NC(=O)[C@H](C)NC)CCS[C@H]5CC4(C)C)cc3)N2C1=O [Compound 18c] | 0.001 to 0.01 | 0.01 to 0.1 | I (I < 10%) | 0.1 to 1 | I (I < 10%) | 1 to 10 | I (I < 10%) | ≤ 0.05 | ≤ 0.05 | 0.05 to 0.1 | 0.05 to 0.1 | < 0.01 | < 0.01 | 1.31 | 0.01 to 0.1
2 | CN[C@@H](C)C(=O)N[C@H]1CCS[C@H]2CC3(CC=CC3)[C@@H](C(=O)N[C@H]3c4ccccc4C[C@H]3OCC#CC#CCO[C@@H]3Cc4ccccc4[C@@H]3NC(=O)[C@H]3N4C(=O)[C@@H](NC(=O)[C@H](C)NC)CCS[C@H]4CC34CC=CC4)N2C1=O [Compound 18o] | 0.001 to 0.01 | – | – | – | – | – | – | ≤ 0.05 | ≤ 0.05 | 0.1 to 0.2 | 0.05 to 0.1 | – | < 0.01 | 5.18 | 0.01 to 0.1
3 | CN[C@@H](C)C(=O)N[C@H]1CCS[C@H]2CC(C)(C)[C@@H](C(=O)N[C@H]3c4ccccc4C[C@H]3OCCCCCCO[C@@H]3Cc4ccccc4[C@@H]3NC(=O)[C@H]3N4C(=O)[C@@H](NC(=O)[C@H](C)NC)CCS[C@H]4CC3(C)C)N2C1=O [Compound 18b, (2S)-1-{[(4S,7S,9aS)-7-({(1S,2R)-2-[(6-{[(1S,2R)-1-({[(4S,7S,9aS)-8,8-Dimethyl-4-{[(2S)-2-(methylammonio)propanoyl]amino}-5-oxooctahydropyrrolo[2,1-b][1,3]thiazepin-7-yl]carbonyl}amino)-2,3-dihydro-1H-inden-2-yl]oxy}hexyl)oxy]-2,3-dihydro-1H-inden-1-yl}carbamoyl)-8,8-dimethyl-5-oxooctahydropyrrolo[2,1-b][1,3]thiazepin-4-yl]amino}-N-methyl-1-oxopropan-2-ammonium dichloride] | 0.001 to 0.01 | – | – | – | – | – | – | ≤ 0.05 | ≤ 0.05 | 0.05 to 0.1 | 0.05 to 0.1 | < 0.01 | < 0.01 | 0.714 | 0.1 to 1
4 | CN[C@@H](C)C(=O)N[C@H]1CCS[C@H]2CC(C)(C)[C@@H](C(=O)N[C@H](CCOCC#CC#CCOCC[C@@H](NC(=O)[C@H]3N4C(=O)[C@@H](NC(=O)[C@H](C)NC)CCS[C@H]4CC3(C)C)c3ccccc3)c3ccccc3)N2C1=O [Compound 18i, (2S)-1-{[(4S,7S,9aS)-74{(1R)-3-[(6-{[(3R)-3-({[(4S,7S,9aS)-8,8-Dimethyl-4-{[(2S)-2-(methylammonio)propanoyl]amino}-5-oxooctahydropyrrolo[2,1-b][1,3]thiazepin-7-yl]carbonyl}amino)-3-phenylpropyl]oxy}hexa-2,4-diyn-1-yl)oxy]-1-phenylpropyl}carbamoyl)-8,8-dimethyl-5-oxooctahydropyrrolo[2,1-b][1,3]thiazepin-4-yl]amino}-N-methyl-1-oxopropan-2-ammonium dichloride] | 0.01 to 0.1 | – | – | – | – | – | – | ≤ 0.05 | 0.05 to 0.1 | 0.05 to 0.1 | 0.05 to 0.1 | < 0.01 | < 0.01 | 1.24 | 0.1 to 1
5 | CN[C@@H](C)C(=O)N[C@H]1CCO[C@H]2CC(C)(C)[C@@H](C(=O)N[C@H]3c4ccccc4C[C@H]3OCC#CC#CCO[C@@H]3Cc4ccccc4[C@@H]3NC(=O)[C@H]3N4C(=O)[C@@H](NC(=O)[C@H](C)NC)CCO[C@H]4CC3(C)C)N2C1=O [Compound 18q, [(1S)-1-{[(4S,7S,9aS)-7-{[(1S,2R)-2-[(6-{[(1S,2R)-1-[(4S,7S,9aS)-8,8-Dimethyl-4-[(2S)-2-(methylazaniumyl)propanamido]-5-oxo-octahydropyrrolo[2,1-b][1,3]oxazepine-7-amido]-2,3-dihydro-1H-inden-2-yl]oxy}hexa-2,4-diyn-1-yl)oxy]-2,3-dihydro-1H-inden-1-yl]carbamoyl}-8,8-dimethyl-5-oxo-octahydropyrrolo[2,1-b][1,3]oxazepin-4-yl]carbamoyl}ethyl](methyl)azanium dichloride] | 0.1 to 1 | 0.01 to 0.1 | I (I < 10%) | 0.1 to 1 | I (I < 10%) | 0.01 to 0.1 | I (I < 10%) | 0.05 to 0.1 | ≤ 0.05 | 0.05 to 0.1 | 0.05 to 0.1 | – | < 0.01 | 1.87 | 0.01 to 0.1
